{"source": "patent EP1464336A1", "about": "“Use of tryprostatin A for the reversal of cancer drug resistance” (Humboldt-Universität zu Berlin, priority 2003, dated 2004)", "key": {"[1]": {"system": "drug-sensitive and drug-resistant gastric and breast cancer cell lines", "assay": "Cytotoxicity of the MDR modulators alone (SRB proliferation assay)", "type": "cell-based, human", "conditions": "for growth inhibitory effect / cytotoxic side effects: 10 µM TPS-A alone, any of the drug-sensitive or drug-resistant cancer cell lines tested", "experimental": "(§1) Modulation of chemoresistance was tested using a proliferation assay based on sulforhodamine B (SRB), a protein-binding reagent (Skehan P et al., J Natl Cancer Inst 1990;82:1107-12), as described in Lage H et al., Int J Hyperthermia 2000;16:291-303; Lage H et al., FEBS Lett 2001;503:179-84; Lage H et al., FEBS Lett 2001;494:54-9. In each experiment, 350 cells per well were seeded in the presence or absence of TPS-A in 96-well plates in complete medium and allowed to attach overnight. Mitoxantrone or daunorubicin were added in a dilution series in triplicate wells. After 5 days, when unselected wells were still subconfluent, incubation was terminated by replacing the medium with 10 % trichloroacetic acid, followed by incubation at 4 °C for 1 h. After samples were washed 5 times with water and air-dried, 50 µl 0.4 % SRB (Sigma, St. Louis, MO) in 1 % acetic acid was added and samples were incubated for 10 min at room temperature. Unbound dye was eliminated by washing the plates 5 times with 1 % acetic acid. After air-drying and re-solubilisation of the protein-bound dye in 10 mM Tris-HCl (pH 8.0), absorbance was quantified at 562.5 nm. To determine the IC50-value, the absorbance difference of control cells without drug was set to be 100 %. Linear regression of data was done for the linear part of the curve, and IC50-values were calculated from multiple, at least three independent experiments for each cell line.\n(§2) The cytotoxicity of the MDR modulators TPS-A and GF120918 on drug-sensitive and drug-resistant gastric and breast cancer cell lines was initially assessed."}, "[2]": {"system": "MCF-7 breast cancer-derived cell variants", "assay": "Cytotoxicity of the MDR modulator alone (SRB proliferation assay)", "type": "cell-based, human", "experimental": "as §1, with “Unbound dye was eliminated by washing the plates 5 times with 1 % acetic acid.” left out, “To determine the IC50-value, the absorbance difference of control cells without drug was set to be 100 %.” left out\nas §2"}, "[3]": {"system": "gastric and breast carcinoma cell variants", "assay": "Modulation of chemoresistance to mitoxantrone or daunorubicin (SRB proliferation assay, IC50/DMF)", "type": "cell-based, human", "experimental": "as §1\nThe cellular sensitivity to mitoxantrone and daunorubicin was assessed by determining the IC50 values without or with increasing concentrations of TPS-A or GF120918 as a positive control in the different cancer cell variants. Table 1 presents the data of TPS-A reversal of mitoxantrone and daunorubicin resistance in different gastric and breast carcinoma cell variants, respectively. […] In each case, the equation DMF=(IC50 (-CS))/(IC50 (+CS)) [formula] was used to calculate the dose modifying factor (DMF), comparing the IC50 values in the presence (+CS) or absence (-CS) of the corresponding chemosensitizer (CS) TPS-A or GF120918."}, "[4]": {"system": "drug-sensitive, and drug-resistant gastric carcinoma and breast cancer cells", "assay": "Time course of mitoxantrone accumulation (flow cytometry)", "type": "cell-based, human", "conditions": "10 µM mitoxantrone and TPS-A for increasing time periods (Fig 5A, 5B)", "experimental": "Cellular mitoxantrone accumulation was determined according to the procedure described in Lage H et al., FEBS Lett 2001;503:179-84. Briefly, 4 x 10^5 cells were seeded out in 6-well plates 78 hours prior to the experiment. Incubation with mitoxantrone (0, 1,5 and 10 µg/ml) was performed for 60 minutes at 37°C and 70-80 % cellular confluence. For kinetics of intracellular enrichment of mitoxantrone, cells were exposed to 10 µg/ml mitoxantrone for 0, 5, 10 and 60 min. Cells were washed with ice-cold PBS, trypsinized and resuspended in 4 °C PBS at a concentration of 4 x 10^5 cells/ml. Intracellular fluorescence of mitoxantrone was determined by flow cytometry (Becton-Dickinson, San Jose, CA). The cells were excited at 480 nm and emission was measured at 630 nm. A minimum of 10^4 cells was analyzed for each sample. All assays were performed at least in three independent experiments, each time with triplicate wells.\nTo analyze the time course of MDR modulating effects of TPS-A, drug-sensitive, and drug-resistant gastric carcinoma and breast cancer cells were incubated with 10 µM mitoxantrone and TPS-A for increasing time periods."}, "[5]": {"system": "cell cycle progression at the G2/M phase", "conditions": "literature (Cui CB et al.; Usui T et al.); cited from earlier work"}, "[6]": {"system": "microtubule-associated protein (MAP)-dependent microtubule assembly", "conditions": "literature (Usui T et al., Biochem J 1998); cited from earlier work"}}, "note": "“Also recorded” adds a separate entry of the source.", "data": [{"smiles": "COc1ccc2c(C[C@@H]3NC(=O)[C@@H]4CCCN4C3=O)c(CC=C(C)C)[nH]c2c1", "note": "[TPS-A, tryprostatin A]", "values": [{"measurement": "growth inhibitory effect / cytotoxic side effects", "setting": "[1]", "value": "no growth inhibitory effect"}, {"measurement": "growth inhibitory effect / cytotoxic side effects", "setting": "[1]; listed as tryprostatin A", "value": "without showing any cytotoxic side effects"}, {"measurement": "cytotoxicity", "setting": "[1]; TPS-A concentration range 1-100 µM", "value": "does not show any cytotoxicity"}, {"measurement": "cross-resistance to the MDR modulator", "setting": "[1]; multidrug-resistant tumor cell lines", "value": "No evidence of cross-resistance"}, {"measurement": "effect on the cell proliferation", "setting": "[2]; 50 µM TPS-A alone in the cell culture medium", "value": "without any effect on the cell proliferation; also recorded: did not show any cytotoxic or growth-inhibiting effects"}, {"measurement": "concentration necessary to obtain a level of drug sensitivity beyond that found for 1 µM GF120918", "setting": "[2]; MCF-7-derived breast cancer model system", "value": 50, "unit": "µM"}, {"measurement": "sensitization to treatment with mitoxantrone", "setting": "[3]; TPS-A, BCRP-expressing gastric and breast cancer cells (Table 1, Figure 2A)", "value": "dose-depending sensitization"}, {"measurement": "effect on sensitivity to daunorubicin", "setting": "[3]; increasing concentrations of TPS-A, drug-sensitive, P-gp- or BCRP-expressing carcinoma cells (Table 1, Figure 2B)", "value": "No significant effect"}, {"measurement": "chemosensitizing effects over time (mitoxantrone accumulation)", "setting": "[4]", "value": "time-dependent manner"}, {"measurement": "final concentration arresting cell cycle progression at the G2/M phase", "setting": "[5]", "value": 125, "unit": "µM"}, {"measurement": "final concentration inhibiting MAP-dependent microtubule assembly / cell cycle progression at the M phase", "setting": "[6]", "value": 250, "unit": "µM"}]}]}
